Data taken from PMC2361651 (British Journal of Cancer, 2005).

Assays:
[1] = test system: treatment refractory solid tumours; experiment: Tumour response (WHO response criteria); format: in vivo, human
Source text: The study protocol was approved by the Research Ethics Committee of the Royal […] Trust. Written informed consent was obtained from all participants. All patients had treatment refractory solid tumours and were required to have at least one tumour deposit suitable for DCE-MRI evaluation. A suitable lesion had to be ⩾2 cm in size and in an anatomical position not subject to significant respiratory excursion. […] Exclusion criteria included patients with a known history of allergy to radiologic contrast agents or to Cremophor®; a Karnovsky performance status of <60%; a history of myocardial infarction, severe or unstable angina within 6 months of the study; diabetes mellitus with clinical evidence of severe peripheral vascular disease or ulceration; a medical condition or device implant that would interfere with or prevent MRI scans; or a serious concomitant medical condition that could interfere with the participation in the study or interpretation of study results.

[2] = test system: KIT (the receptor for stem cell factor); parameters: method as in Antonian et al, 2000; Smolich et al, 2001; Yee et al, 2002; settings: ref Antonian et al, 2000; Smolich et al, 2001; Yee et al, 2002; cited from earlier work
[3] = test system: coagulation / fibrinolytic pathway; experiment: Coagulation parameters and expanded coagulation series in patients; format: in vivo, human
Procedure: During the dose escalation stage of the protocol, a standard series of coagulation parameters (APPT, INR and fibrinogen) was explored at baseline prior to therapy and every 2 weeks thereafter. In the dose expansion phase of the protocol, in response to the clinical occurrence of two separate venous thrombotic episodes in study patients, an expanded coagulation series was performed.
At each time point, blood was collected in citrated and EDTA tubes (Becton-Dickinson Vacutainer Systems, Europe). The samples from the citrated tubes were immediately centrifuged (at 4°C for 10 min at 3000 r.p.m.) supernatants pooled into inert plastic, centrifuged again (at 4°C, 10 min at 3000 r.p.m.) and the resultant sample stored in inert plastic tubes at −70°C until analysis. The sample taken into EDTA was centrifuged (at 4°C, for 10 min at 3000 r.p.m.), the supernatant decanted into inert plastic tubes and again stored at −70°C until analysis.

[4] = cited from earlier work
[5] = 27 patients treated, two not evaluable

Cc1cc(C)c(/C=C2\C(=O)Nc3ccccc32)[nH]1 [SU5416, Z-3-[(2,4-dimethylpyrrol-5-yl)methylidenyl]-2-indolinone]
patients with progressive disease as best response [1, 5]: 14 patients | patients with stable disease at 6 weeks [1, 5]: 12 patients | patients remaining on therapy for more than 12 weeks ([1]; haemangioendothelioma, ovarian and adrenocortical carcinoma): three | inhibition of KIT [2]: potent competitive inhibitor | change in INR, APTT or fibrinogen ([3]; baseline and every 2 weeks): No change | reduction in plasmin–anti-plasmin complexes, median change ([3]; six patients, expanded panel): 12.7 µg/L | reduction in plasmin–anti-plasmin complexes, range of change ([3]; six patients, expanded panel): 0 to 36 µg/L | acute increase in plasminogen activator inhibitor (PAI-1) levels, median change ([3]; six patients, expanded panel, recovery at 24 h): 37.3 IU | degree of induction of SU5416 metabolism ([4]; same schedule, sampling from day 1, ref Cropp et al, 1999, Rosen et al): 69% | dose at which DLT (projectile vomiting and severe headache) was reported ([4]; same twice weekly schedule, ref Rosen et al, 1999): 190 mg m^−2
